Measurements reported in patent US6972287B1, “Method of inhibiting amyloid protein aggregation and imaging amyloid deposits” (Pfizer Inc., priority 1999, dated 2005).
“And” between values parts separate entries of the source, which are not always exact repeats. Equal entries are not always repeated.

How the values were obtained:
Aβ(1-40) [1] = molecular target: T1, Aβ(1-40) (Homo sapiens, UniProt P05067); assay: BASSR (Beta-Amyloid Self-Seeding Radioassay), inhibitors of self-seeded amyloid fibril growth; assay type: biochemical; settings: 30 μM soluble Aβ(1-40) + 125I-labeled Aβ(1-40), 37° C., 3 to 5 hours; replicate values; letter = synthetic lot; ppt = precipitate; V-shaped = inhibition followed by precipitation
T1 construct: […]; purchased Bachem, Torrance, Calif
Protocol: BASSR (Beta-Amyloid Self-Seeding Radioassay)
(§1) An assay for inhibitors of self-seeded amyloid fibril growth
Assay Buffer—50 mM sodium phosphate, pH 7.5, 100 mM NaCl, 0.02% NaN3, 1 M urea (filter and store at 4° C.).
(§2) Typically, the solution should be stored until no lag phase is seen in the assay.
^125I-labeled Aβ(1-40)—150K-350K cpm/μL in 100% acetonitrile—0.1% trifluoroacetic acid (TFA)—1% β-mercaptoethanol (aliquots stored at −20° C.). ^125I-labeled Aβ(1-40) can be made in accordance with the procedure set forth by H. LeVine, III in Neurobiol. Aging, 16, 755, (1995), which is hereby incorporated by reference, or this reagent may be purchased from Amersham, Arlington Heights, Ill.
The following are the amounts of the components of the reaction mixture sufficient for 50 assay wells:
• 1) Prepare reaction mixture above by mixing components and storing on ice. • 2) Pipet 14.5 μL of reaction mixture into each of 50 wells on a polypropylene U-bottom 96-well microtiter plate on ice. (Costar 3794). • 3) Add 1.7 μL of diluted compound to be tested to each well in a column of eight, including solvent control. Serial 3-fold dilutions from 1 mM (100 μM final) in assay buffer−urea=7 dilutions+zero. Each 96-well plate can therefore accommodate 11 samples+1 Congo Red control (0.039-5 μM final in 2-fold steps). • 4) Seal the plate with aluminum film (Beckman 538619) and incubate for 10 minutes on ice. • 5) Raise the temperature to 37° C. and incubate for 3 to 5 hours (depending on the lot of the peptide). • 6) Remove the aluminum film and add 200 μL/well of ice cold assay buffer with urea, collecting the radiolabeled fibrils by vacuum filtration through 0.2 μm pore size GVWP filters in 96-well plates (Millipore MAGV N22, Bedford, Mass.). Determine the radioactivity of the filters using standard methods well-known to those skilled in the art. BASST (Beta-Amyloid Self-Seeding, Thioflavin T)

Aβ(1-40) [2] = molecular target: T1, Aβ(1-40); assay: BASST (Beta-Amyloid Self-Seeding, Thioflavin T), inhibitors of self-seeded amyloid fibril growth; assay type: biochemical; settings: 30 μM soluble Aβ(1-40), 37° C., 3 to 5 hours, thioflavin T fluorescence; replicate values; letter = synthetic lot; read-out: BASST (IC50 = μM)
Protocol: as §1
Assay Buffer—50 mM sodium phosphate, pH 7.5, 100 mM NaCl, 0.02% NaN3, 1 M urea (filter and store at 4° C.)
as §2
The following are the amounts of the components of the reaction mixture that result in each of the 50 assay wells:
• 1) Prepare the reaction mix above by mixing the components and storing on ice. • 2) Pipet 14.5 μL of reaction mixture into each of 50 wells of a polystyrene U-bottom 96-well microtiter plate (Corning 25881-96) on ice. • 3) Add 1.7 μL of diluted compound to be tested to each well in a column of eight, including solvent control. Serial 3-fold dilutions from 1 mM (100 μM final) in assay buffer−urea=7 dilutions+zero. Each 96-well plate can therefore accommodate 11 samples+1 Congo Red control (0.039-5 μM final in 2-fold steps). • 4) Seal the plate with aluminum film and incubate for 10 minutes on ice. • 5) Raise the temperature to 37° C. and incubate for 3 to 5 hours (depends on the lot of the peptide). • 6) Remove the aluminum film and add 250 μL/well of 5 μM thioflavin T (ThT) [T-3516, Sigma-Aldrich] in 50 mM glycine-NaOH, pH 8.5. Read fluorescence on a plate reader (ex=440 nm/20 nm; em=485 nm/20 nm) within 5 minutes. BAPA (Beta-Amyloid Peptide Aggregation)

Aβ (1-42) = molecular target: T2, Aβ (1-42) (Homo sapiens, UniProt P05067); assay: BATYM assay (Aβ (1-42) aggregation, Thioflavin T fluorescence); assay type: biochemical; settings: Aβ 1-42 final concentration 100 μM, 37° C., 1 day, letter = synthetic lot
T2 construct: Required Aβ (1-42) (California Peptide) was dried from its hexafluoroisopropanol (HFIP) stock solution; purchased California Peptide
Protocol: Required Aβ (1-42) (California Peptide) was dried from its hexafluoroisopropanol (HFIP) stock solution. The Aβ (1-42) was dissolved in dimethylsulfoxide (DMSO) and then mixed with phosphate buffered saline (PBS) (pH 7.4). The mixed Aβ (1-42) solution was filtered with a 0.2 μm Omnipore membrane syringe filter Millipore, Bedford, Mass.). The compound to be tested in DMSO (50 times concentrate) was put into each well (0.5 μL/well) of a 96-well plate. The Aβ (1-42) solution was added into each well (24.5 μL/well). The plate was centrifuged at 1,000 g for 5 minutes and incubated at 37° C. for 1 day (Aβ 1-42; final concentration 100 μM).
After incubation Thioflavin T (ThT) (30 μM) solution in glycine-NaOH buffer (pH 8.5, 50 mM) was added into each well (250 μL/well), fluorescence was measured (ex=440/20 nm, em=485/20 nm) using a fluorescence plate reader. The inhibitory activity was calculated as the reduction of fluorescence with the following formula: Inhibition (%)={(F(Aβ)−F(Aβ+compound)}/{F(Aβ)−[…]}×100
The IC50s were calculated by a curve fitting program using the following equation. The data were obtained from two different experiments in triplicate.
x=Concentration of tested compound (M),

Aβ (1-40) peptide = molecular target: T3, Aβ (1-40) peptide (Homo sapiens, UniProt P05067); assay: BAPA (Beta-Amyloid Peptide Aggregation, pH 6.0, filtration); assay type: biochemical; settings: Aβ (1-40) 33 μM, pH 6.0, 2 to 4 hours at room temperature; replicate values; letter = synthetic lot
T3 construct: 10 μL 0.5 mg/mL Aβ (1-40) peptide in 20% HFIP
Protocol: Each 96-well plate can therefore accommodate 11 samples+1 Congo Red control (0.039-5 μM final in 2-fold steps). • 4) Seal the plate with aluminum film and incubate for 10 minutes on ice. • 5) Raise the temperature to 37° C. and incubate for 3 to 5 hours (depends on the lot of the peptide). • 6) Remove the aluminum film and add 250 μL/well of 5 μM thioflavin T (ThT) [T-3516, Sigma-Aldrich] in 50 mM glycine-NaOH, pH 8.5. […] The purpose of this assays is to provide a higher volume method of assaying the amount of beta amyloid aggregation using an endpoint assay based on filtration. In this assay, hexafluoroisopropanol (HFIP) is used to break down the initial amyloid peptide to a monomer state and use a concentration of 33 μM which is high enough so that aggregation will occur at pH 6.0 in several hours. Methods: […] Then, we incubate for 2 to 4 hours at room temperature. […] We wash the filter plate with 100 μL of the same phosphate buffer. Aggregation was detected on a Microbeta counter after impregnating the filters with Meltilex (1450-441) and is corrected for background.

T2 sequence (P05067 672-713 limits assumed): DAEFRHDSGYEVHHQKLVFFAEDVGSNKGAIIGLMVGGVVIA
T3 sequence (P05067 672-711 limits assumed): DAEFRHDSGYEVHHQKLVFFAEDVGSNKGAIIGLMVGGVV
T1 sequence (P05067 672-711 limits assumed): as above

Row | SMILES | IC50 (Aβ(1-40) [1]) [µM] | IC50 (Aβ(1-40) [2]) | IC50 (Aβ (1-42)) [µM] | melting point [°C] | IC50 (Aβ (1-40) peptide) [µM]
1 | O=C(O)c1ccccc1Nc1ccc(CCCc2ccc(-n3cccc3)cc2)cc1 [Example 46, 2-(4-{3-[4-(1H-Pyrrol-1-yl)phenyl]propyl}phenylamino)benzoic acid] | > 100 | 6 µM | 34.3 | 131 to 136 | 
2 | CCN(CC)C(=O)c1ccc(CCCc2ccc(Nc3ccccc3C(=O)O)cc2)cc1 [Example 48, 2-{4-[3-(4-Diethylcarbamoylphenyl)propyl]phenylamino}benzoic acid] | 25 | 10 µM | > 100 | 57 to 62 | 
3 | O=C(O)c1ccc(CCCc2ccc(Nc3ccccc3C(=O)O)cc2)cc1 [Example 49, 2-{4-[3-(4-Carboxyphenyl)propyl]phenylamino}benzoic acid] | > 100 | > 100 µM | > 100 | 236 to 239 | 
4 | CCN(CC)Cc1ccc(CCCc2ccc(Nc3ccccc3C(=O)O)cc2)cc1 [Example 50, 2-{4-[3-(4-Diethylaminomethylphenyl)propyl]phenylamino}benzoic acid] | > 100 | > 100 µM | > 100 | 137 | 
5 | O=C(O)c1ccccc1Nc1ccc(CCCc2ccc(N3CCCC3)cc2)cc1 [Example 53, 2-{4-[3-(4-Pyrrolidin-1-yl-phenyl)-propyl]-phenylamino}-benzoic acid] | > 100 | 0.3 µM | 30 | 171 to 177 | 
6 | O=C(O)c1ccccc1Nc1ccc(CCCc2cccc(N3CCCCC3)c2)cc1 [Example 54, 2-{4-[3-(3-Piperidin-1yl-phenyl)-propyl]-phenylamino}-benzoic acid] | > 100 | 0.4 µM | 43.9 | 59 to 61 | 
7 | O=C(O)c1ccccc1Nc1ccc(CCc2ccc(N3CC[C@@H]4CCCC[C@H]4C3)cc2)cc1 [Example 82, 2(4-{2-[(4aS,8aR)-4-(Octahydro-isoquinolin-2-yl)-phenyl]-ethyl}-phenylamino)-benzoic acid] | > 100 | 2 µM and 300 nM (2×) |  | 203 to 206 | 
8 | COc1ccc(Nc2ccc(CCCCc3ccc(Cl)c(Cl)c3)cc2)c(C(=O)O)c1 [Example 121, 2-{4-[4-(3,4-Dichloro-phenyl)-butyl]-phenylamino}-5-methoxy-benzoic acid] | > 100 | 1 µM |  | 155 to 158 | 
9 | O=C(O)c1ccccc1Nc1ccc(CCc2ccc(Nc3ccccc3C(=O)O)cc2)cc1 [Example 136, 2-{4-[2-(4-{2-Hydroxycarbonylphenylamino}phenyl)ethyl]-phenylamino}-benzoic acid] | > 100 | 3 µM | > 100 |  | 53
10 | COc1cc(Nc2ccc(CCCc3ccc(Cl)c(Cl)c3)cc2)c([N+](=O)[O-])cc1C(=O)O [Example 138, 4-{4-[3-(3,4-Dichloro-phenyl)propyl]-phenylamino}-2-methoxy-5-nitro-benzoic acid] |  |  |  | 74 to 78 | 
11 | O=C(O)c1cc(F)ccc1Nc1ccc(CCCc2ccc(Cl)c(Cl)c2)cc1 [Example 139, 2-{4-[3-(3,4-Dichloro-phenyl)-propyl]-phenylamino}-5-fluoro-benzoic acid] |  |  |  | 122 to 123 | 
12 | Nc1ccc(Nc2ccc(CCCCCc3ccc(Cl)c(Cl)c3)cc2)c(C(=O)O)c1 [Example 140, 5-Amino-2-{4-[5-(3,4-dichloro-phenyl)pentyl]-phenylamino}-benzoic acid] |  |  |  | 182 to 184 | 
13 | O=C(NS(=O)(=O)C(F)(F)F)c1ccccc1Nc1ccc(CCCc2ccc(Cl)c(Cl)c2)cc1 [Example 141, N-(2-{4-[3-(3,4-Dichloro-phenyl)-propyl]-phenylamino}-benzoyl)-C,C,C,-trifluoro-methanesulfonamide] | > 100 | 7 µM | 56.7 |  | > 50
14 | O=C(NS(=O)(=O)c1ccccc1)c1ccccc1Nc1ccc(CCCc2ccc(Cl)c(Cl)c2)cc1 [Example 142, N-(2-{4-[3-(3,4-Dichloro-phenyl)propyl]-phenylamino}-benzoyl)-benzenesulfonamide] | > 100 | 2.1 µM | 26.9 |  | 55
15 | O=C(O)c1cccc(C(F)(F)F)c1Nc1ccc(CCc2ccc(Cl)c(Cl)c2)cc1 [Example 146, 2-{4-[2-(3,4-Dichloro-phenyl)-ethyl]-phenylamino}-3-trifluoromethyl-benzoic acid] | > 100 | 30 µM | > 100 |  | > 60
16 | CCCN(CCC)c1ccc(Nc2ccc(CCc3ccc(Cl)c(Cl)c3)cc2)c(C(=O)O)c1 [Example 149, 2-{4-[2-(3,4-Dichlorophenyl)-ethyl]-phenylamino}-5-dipropylamino-benzoic acid] | > 100 | > 100 µM | > 100 |  | > 60
17 | CCCCN(CCCC)c1ccc(Nc2ccc(CCc3ccc(Cl)c(Cl)c3)cc2)c(C(=O)O)c1 [Example 150, 5-Dibutylamino-2-{4-[2-(3,4-dichloro-phenyl)-ethyl]-phenylamino}-benzoic acid] | > 100 | 10 µM | > 100 |  | 76
18 | Nc1ccc(CCCc2ccc(Nc3ccccc3C(=O)O)cc2)cc1 [Example 159, 2-{4-[3-(4-Aminophenyl)propyl]phenylamino}benzoic acid] |  |  |  | 110 to 112 | 
